Consider five compounds from patent US20040248919A1, “Fluorinated trienes and their use as rxr modulators” (priority 2001, published 2004).

Some results are limits rather than exact numbers.

The target in one data set is T1, RARβ (Homo sapiens, UniProt P10826).
T1 sequence (P10826 1-455): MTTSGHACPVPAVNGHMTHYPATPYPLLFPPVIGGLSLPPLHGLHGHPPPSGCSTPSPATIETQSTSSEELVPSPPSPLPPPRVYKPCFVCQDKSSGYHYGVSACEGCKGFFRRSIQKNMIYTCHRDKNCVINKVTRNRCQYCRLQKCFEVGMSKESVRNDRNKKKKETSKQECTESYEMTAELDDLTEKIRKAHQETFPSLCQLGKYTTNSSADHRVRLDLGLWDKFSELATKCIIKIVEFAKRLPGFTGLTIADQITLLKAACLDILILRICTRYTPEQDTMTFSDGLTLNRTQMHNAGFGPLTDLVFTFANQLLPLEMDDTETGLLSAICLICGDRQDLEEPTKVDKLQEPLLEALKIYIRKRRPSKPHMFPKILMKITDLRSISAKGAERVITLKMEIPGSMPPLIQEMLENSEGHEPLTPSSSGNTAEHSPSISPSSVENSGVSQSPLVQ
Put plainly: RAR binding, competition with tritiated retinoid. The following applies: read-out: RAR Binding beta. From the text:
In addition to the cotransfection data, the binding of selected compounds of the present invention to the RAR and RXR receptors was also investigated according to the methodology described in M. F., Boehm, et al., “Synthesis and Structure-Activity Relation-ships of Novel Retinoid X Receptor Selective Retinoids”, 37 J. Med. Chem., 2930 (1994); M. F. Boehm, et al., “Synthesis of High Specific Activity [^3H]-9-cis Retinoic Acid and Its Application for Identifying Retinoids with Unusual Binding Properties”, 37 J. Med. Chem., 408 (1994), and E. A. Allegretto, et al., “Characterization and Comparison of Hormone-Binding and Transactivation Properties of Retinoic Acid and Retinoid X Receptors Expressed in Mammalian Cells and Yeast”, 268 J. Biol. Chem., 22625 (1993), the disclosures of which are herein incorporated by reference.
Non-specific binding was defined as that binding remaining in the presence of 500 nM of the appropriate unlabelled compound. At the end of the incubation period, bound ligand was separated from free. The amount of bound tritiated retinoid was determined by liquid scintillation counting of an aliquot (700 μL) of the supernatant fluid or the hydroxylapatite pellet.
After correcting for non-specific binding, IC50 values were determined. The IC50 value is defined as the concentration of competing ligand needed to reduce specific binding by 50%. The IC50 value was determined graphically from a log-logit plot of the data. The Ki values were determined by application of the Cheng-Prussof equation to the IC50 values, the labeled ligand concentration and the Kd of the labeled ligand.

Data set [1] is described as follows: Metabolic stability in mouse liver microsomes. It is filed as in vitro ADME. Conditions: 20 min incubation, 37° C., NADPH. The procedure: A solution containing 1130 μL of 100 mM sodium phosphate buffer, pH 7.4, 20 μL of a 25 mg/mL CD-1 mouse liver microsomal suspension in 100 mM sodium phosphate buffer, pH 7.4, and 830 μL of a 4 mg/mL NADPH solution in 100 mM sodium phosphate buffer, pH 7.4, was prepared in a glass test tube, mixed on a vortexer, and incubated in a shaking water bath at 37° C. for 3 min. A test compound was dissolved in 10% DMSO/90% methanol to a final concentration of 400 μM, and 20 μL was added to the above solution after the 3 min. incubation. The solution was mixed on a vortexer, and incubated at 37° C. in the shaking water bath. After 0, 5, 10 and 20 min incubation, 75 μL aliquots of the incubation solution were removed in triplicate and each aliquot was added to a 75 μL solution that contained 2 μM of an internal standard in 50% acetonitrile/50% 20 mM ZnSO4 and 20 mM NaOH in water. Samples were mixed on a vortexer, and centrifuged at 10° C. for 25 min at 3000 rpm. The supernatant was separated from the microsomal pellet and analyzed for the test compound by electrospray negative ionization using a Micromass Platform LCZ mass spectrometer equipped with a Shimadzu 10AD VP pump, and Shimadzu 10AD UP autosampler. […] Peak area ratios of the test compound to internal standard at each time point were compared to the 0 min. time point to assess metabolic stability. […]
In general terms: Liver microsomes are vesicles of endoplasmic reticulum, rich in cytochrome P450 enzymes.

`CCOc1c(\C(=C/C=C/C(C)=C/C(=O)O)C(F)(F)F)cc(C(C)(C)C)cc1C(C)(C)C` [Example 5, (2E,4E,6E)-3-methyl-7-(2-ethoxy-3,5-di-tert-butylphenyl)-8,8,8-trifluoroocta-2,4,6-trienoic acid]: the Ki at RARβ is 7.25 µM. Take `CCCCOc1c(\C(C)=C/C=C/C(=C\C(=O)O)C(F)(F)F)cc(C(C)C)cc1C(C)C` [Example 4, (2E,4E,6Z)-7-(2-Butoxy-3,5-diisopropylphenyl)-3-trifluoromethyl-octa-2,4,6-trienoic acid]: at RARβ, the Ki is over 10 µM.

Take `C/C(=C/C(F)=C/C(C)=C/C(=O)O)c1cc(C(C)(C)C)cc(C(C)(C)C)c1OCC(F)F` [Example 2, 7-[3,5-Di-tert-butyl-2-(2,2-difluoroethoxy)-phenyl]-5-fluoro-3-methyl-octa-2,4,6-trienoic acid]: at RARβ, the Ki came to 2.75 µM. For the same compound, in data set [1], the “Metabolic stability (mouse microsomes): Difference from reference compound at 20 min.” value amounted to 18.300%.

On to `CCCCOc1c(\C(C)=C/C=C/C(=C/C(=O)O)C(F)(F)F)cc(C(C)C)cc1C(C)C` [Example 3, (2Z,4E,6Z)-7-(2-Butoxy-3,5-diisopropylphenyl)-3-trifluoromethyl-octa-2,4,6-trienoic acid], for which, on RARβ, the Ki is over 10 µM. For `C/C(=C/C=C(F)/C(C)=C/C(=O)O)c1cc(C(C)(C)C)cc(C(C)(C)C)c1OCC(F)F` [Example 1, 7-[3,5-di-tert-butyl-2-(2,2-difluoroethoxy)-phenyl]4-fluoro-3-methyl-octa-2,4,6-trienoic acid], the Ki on RARβ turned out to be 6.63 µM. Besides, the “Metabolic stability (mouse microsomes): Difference from reference compound at 20 min.” value in data set [1] worked out at 29.295%.
